Results reported in article PMC10674476, “Development of a Novel In Vitro Model to Study Lymphatic Uptake of Drugs via Artificial Chylomicrons” (Pharmaceutics, 2023).
Where two headings read alike, the source gives them in different places. Marks after values point to notes of the source that are not given here.

Key:
[1] = set-up: method as in PMID 19916501; details: 30 mg/kg intraduodenal, mesenteric-cannulated rat; cited from earlier work
[2] = cited from earlier work; for Density: ref ChemBK **, ChemSpider ***, # drugfuture.com, ## chemsrc.com; for PSA (polar surface area): ref DrugBank, in Å2 (unit assumed)
[3] = In vitro lymphatic uptake model (Franz cell, Intralipid receiver, octanol-impregnated PVDF membrane); details: 37 °C, 0–4 h, rank among the four tested drugs
Description: The Franz Cell receiver compartment was filled with 12 mL of either Intralipid® or Intralipid® mixed with a potential inhibitor or enhancer and maintained at 37.0 ± 0.5 °C with magnetic stirring at 600 rpm, as shown in Figure 2. A synthetic 0.22 µm Polyvinylidene Fluoride (PVDF) membrane impregnated with octanol was placed between compartments. […] Two mL solutions of the model drugs were added to the donor compartment with the receiver compartment containing either Intralipid® or Intralipid® mixed with an enhancer or an inhibitor. At different time intervals (0–4 h), 0.2 mL samples were withdrawn, extracted, and analyzed for drug content using HPLC with a C18 column (150 mm × 4.6 mm i.d., 5 µm).
Therefore, this in vitro model was developed to replicate this in vivo process. Since certain lipophilic drugs are taken up from the intestinal lumen into enterocytes and subsequently enclosed within chylomicrons, the developed model was designed to include a donor compartment, resembling the intestinal lumen, where the drug solution is placed. Additionally, there was a receiver compartment that contains an artificial chylomicron medium, simulating the environment within enterocytes. These two compartments were separated by an octanol-immersed membrane, which served as a representation of the lipophilic cell membrane found in enterocytes (Figure 2).

[4] = set-up: method as in PMID 23200408; details: intraduodenal, thoracic duct-cannulated rats; cited from earlier work
[5] = long-chain triglyceride formulation; cited from earlier work
[6] = lipidic vehicles, lymph-cannulated rats; cited from earlier work
[7] = set-up: method as in PMID 32785853; details: Sprague-Dawley rats, cited from earlier work
[8] = set-up: method as in PMID 32785853, PMID 29109461; details: cited from earlier work
[9] = oral; cited from earlier work

Compound	Cmax in the lymph relative to plasma [1]	Density [2]	PSA (polar surface area) [2]	HBA (hydrogen-binding acceptors) ([2]; ref PubChem (* DrugBank))	HBD (hydrogen binding donors) ([2]; ref PubChem (* DrugBank))	LogP ([2]; ref PubChem (* DrugBank))	lymphatic uptake (release into the receiver compartment) [3]	transport through the lymphatic system with soybean oil [4]	total bioavailability [5] [%]	pKa ([2]; ref PubChem (* DrugBank))	total systemic exposure [6]	increase in systemic exposure with lipids versus lipid-free formulations [7]	increase in systemic exposure with lipids versus lipid-free formulations ([7]; listed as CBD)	increase in plasma concentration with sesame oil [8] [fold]	increase in systemic exposure with sesame oil [8] [fold]	systemic exposure compared to testosterone administration [9]
O=c1c(O)c(-c2ccc(O)c(O)c2)oc2cc(O)cc(O)c12 [Quercetin, quercetin]	approximately five times higher	1.8 ^## g/cm^3	127.45 *	7	5	1.48	moderate efficiency	notably improved								
CCCCN(CCCC)CCC(O)c1cc2c(Cl)cc(Cl)cc2c2cc(C(F)(F)F)ccc12 (stereo not drawn) [Halofantrine]		1.2 *** g/cm^3	23.5 *	5	1	8.9			19.1	14.47	22.7 % of the administered dose					
CO[C@H]1/C=C/O[C@@]2(C)Oc3c(C)c(O)c4c(O)c(c(/C=N/N5CCN(C)CC5)c(O)c4c3C2=O)NC(=O)/C(C)=C\C=C\[C@H](C)[C@H](O)[C@@H](C)[C@@H](O)[C@@H](C)[C@H](OC(C)=O)[C@@H]1C [Rifampicin, rifampicin]		1.178 ** g/cm^3	220.15 *	15	6	4.9	least available									
C=C(C)[C@@H]1CCC(C)=C[C@H]1c1c(O)cc(CCCCC)cc1O [Cannabidiol, cannabidiol]		1.04 ^# g/cm^3	40.46 *	2 *	2 *	6.3 *	moderate efficiency					factor of three	three-fold increase	250	2.8	
CCCCCCCCCCC(=O)O[C@H]1CC[C@H]2[C@@H]3CCC4=CC(=O)CC[C@]4(C)[C@H]3CC[C@]12C [testosterone undecanoate]																higher systemic exposure
